# Measurements: the supplement of paper PMC12463676, “Small-molecule dissolution of stress granules by redox modulation benefits ALS models” (Nature Chemical Biology, 2025)
# Compound: NC(=O)CCCCC1CCSS1 [lipoamide]
# Assay: thermal stability z-score vs DMSO; higher = more thermally stabilized by treatment
# Conditions: HeLa; lipoamide concentration 100 µM; arsenate co-treatment: 1 mM arsenate 1 h
# Procedure: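 Cellular thermal proteome profiling in HeLa cells. Cells were treated with 100 µM lipoamide for 1 h, with or without 1 mM arsenate for a further 1 h, then heated to ten temperatures (37-66.3 °C), and soluble protein was quantified by TMT mass spectrometry relative to 0.1% DMSO controls. The thermal stability score (sum of log2 fold changes minus the abundance score) was transformed to a z-score; mean of n = 3 experiments.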
# 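Also: each temperature applied for 3 min, abundance score taken as mean log2 fold change at the two lowest temperatures, z-score obtained by mean subtraction and division by SD.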
# Sequence of UniProt O75348 (O75348 whole entry): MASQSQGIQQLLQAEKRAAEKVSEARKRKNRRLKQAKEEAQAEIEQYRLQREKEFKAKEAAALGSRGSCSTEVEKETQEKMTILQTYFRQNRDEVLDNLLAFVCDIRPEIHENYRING
# Sequence of UniProt Q8N697 (Q8N697 whole entry): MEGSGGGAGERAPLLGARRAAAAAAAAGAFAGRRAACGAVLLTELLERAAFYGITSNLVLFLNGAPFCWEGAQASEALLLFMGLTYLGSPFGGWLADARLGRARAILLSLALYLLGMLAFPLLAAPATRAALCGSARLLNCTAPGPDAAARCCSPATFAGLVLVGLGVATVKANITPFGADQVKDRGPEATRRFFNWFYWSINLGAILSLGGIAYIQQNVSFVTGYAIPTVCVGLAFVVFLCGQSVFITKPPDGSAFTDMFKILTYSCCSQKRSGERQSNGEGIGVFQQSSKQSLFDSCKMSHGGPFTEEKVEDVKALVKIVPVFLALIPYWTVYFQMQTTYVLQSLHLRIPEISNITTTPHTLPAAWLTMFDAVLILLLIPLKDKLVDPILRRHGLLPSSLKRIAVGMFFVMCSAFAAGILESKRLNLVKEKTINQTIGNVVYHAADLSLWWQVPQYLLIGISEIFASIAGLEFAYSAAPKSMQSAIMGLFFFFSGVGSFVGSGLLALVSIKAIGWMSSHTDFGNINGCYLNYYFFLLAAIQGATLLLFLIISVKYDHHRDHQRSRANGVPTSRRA
# Sequence of UniProt Q9UHW5 (Q9UHW5 whole entry): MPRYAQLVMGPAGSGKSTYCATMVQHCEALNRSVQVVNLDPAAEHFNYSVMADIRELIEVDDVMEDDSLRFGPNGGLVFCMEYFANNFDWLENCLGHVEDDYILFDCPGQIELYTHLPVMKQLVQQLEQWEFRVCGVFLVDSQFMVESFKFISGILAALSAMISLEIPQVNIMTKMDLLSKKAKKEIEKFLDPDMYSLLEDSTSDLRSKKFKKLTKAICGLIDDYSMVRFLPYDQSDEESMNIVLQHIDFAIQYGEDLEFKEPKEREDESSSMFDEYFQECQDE
# Sequence of UniProt Q9P031 (Q9P031 whole entry): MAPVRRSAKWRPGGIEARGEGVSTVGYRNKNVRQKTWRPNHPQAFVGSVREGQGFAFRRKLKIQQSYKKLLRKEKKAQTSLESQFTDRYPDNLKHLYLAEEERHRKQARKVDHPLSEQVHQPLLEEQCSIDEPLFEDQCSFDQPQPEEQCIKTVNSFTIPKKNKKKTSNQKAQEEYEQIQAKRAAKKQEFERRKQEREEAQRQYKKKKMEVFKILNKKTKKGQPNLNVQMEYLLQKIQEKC
# Sequence of UniProt O95757 (O95757 whole entry): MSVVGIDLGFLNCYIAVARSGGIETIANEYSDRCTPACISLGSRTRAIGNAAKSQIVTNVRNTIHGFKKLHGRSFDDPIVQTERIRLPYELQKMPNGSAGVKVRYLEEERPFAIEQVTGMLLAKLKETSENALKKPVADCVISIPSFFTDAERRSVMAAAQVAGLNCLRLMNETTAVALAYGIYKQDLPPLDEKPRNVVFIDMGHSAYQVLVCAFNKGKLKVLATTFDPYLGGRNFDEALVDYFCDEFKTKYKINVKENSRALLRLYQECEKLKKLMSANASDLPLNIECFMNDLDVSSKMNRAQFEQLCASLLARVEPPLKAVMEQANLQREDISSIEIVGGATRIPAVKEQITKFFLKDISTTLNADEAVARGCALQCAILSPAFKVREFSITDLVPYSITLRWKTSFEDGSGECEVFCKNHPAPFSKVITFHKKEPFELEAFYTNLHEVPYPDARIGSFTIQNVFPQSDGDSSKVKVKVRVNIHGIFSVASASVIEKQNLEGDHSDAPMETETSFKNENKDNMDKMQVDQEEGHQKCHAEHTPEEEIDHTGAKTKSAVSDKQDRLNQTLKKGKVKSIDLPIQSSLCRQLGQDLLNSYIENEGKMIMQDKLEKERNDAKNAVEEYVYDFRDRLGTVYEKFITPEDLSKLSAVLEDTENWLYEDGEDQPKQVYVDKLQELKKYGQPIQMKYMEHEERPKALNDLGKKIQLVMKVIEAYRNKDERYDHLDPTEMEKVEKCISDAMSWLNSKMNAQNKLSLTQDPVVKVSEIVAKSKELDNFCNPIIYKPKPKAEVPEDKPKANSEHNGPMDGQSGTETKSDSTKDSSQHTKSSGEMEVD
# Sequence of UniProt Q9UNX4 (Q9UNX4 whole entry): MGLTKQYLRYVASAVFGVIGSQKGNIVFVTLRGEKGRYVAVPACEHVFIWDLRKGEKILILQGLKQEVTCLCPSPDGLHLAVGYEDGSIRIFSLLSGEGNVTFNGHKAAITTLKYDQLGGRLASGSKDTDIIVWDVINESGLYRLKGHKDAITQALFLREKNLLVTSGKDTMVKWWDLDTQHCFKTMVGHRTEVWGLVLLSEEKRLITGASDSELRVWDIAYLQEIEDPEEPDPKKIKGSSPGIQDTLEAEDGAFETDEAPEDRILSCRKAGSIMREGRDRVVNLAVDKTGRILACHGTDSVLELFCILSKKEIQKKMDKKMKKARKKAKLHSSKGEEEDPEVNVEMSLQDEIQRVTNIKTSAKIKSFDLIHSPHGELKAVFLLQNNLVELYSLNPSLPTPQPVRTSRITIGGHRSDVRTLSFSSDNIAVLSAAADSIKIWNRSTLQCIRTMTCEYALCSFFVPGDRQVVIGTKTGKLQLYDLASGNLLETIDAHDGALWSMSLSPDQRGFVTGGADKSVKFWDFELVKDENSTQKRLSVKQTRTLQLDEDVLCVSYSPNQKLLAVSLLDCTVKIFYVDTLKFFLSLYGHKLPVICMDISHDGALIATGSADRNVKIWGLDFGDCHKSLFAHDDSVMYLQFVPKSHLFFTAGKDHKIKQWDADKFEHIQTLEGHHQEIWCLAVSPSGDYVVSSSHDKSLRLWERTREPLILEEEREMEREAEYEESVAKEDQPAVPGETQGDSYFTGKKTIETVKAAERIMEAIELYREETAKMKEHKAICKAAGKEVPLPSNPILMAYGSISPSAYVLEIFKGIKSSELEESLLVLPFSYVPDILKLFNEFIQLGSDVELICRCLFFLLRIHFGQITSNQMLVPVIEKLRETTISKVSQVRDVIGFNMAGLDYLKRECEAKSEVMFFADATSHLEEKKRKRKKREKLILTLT
# Sequence of UniProt Q8N5I4 (Q8N5I4 whole entry): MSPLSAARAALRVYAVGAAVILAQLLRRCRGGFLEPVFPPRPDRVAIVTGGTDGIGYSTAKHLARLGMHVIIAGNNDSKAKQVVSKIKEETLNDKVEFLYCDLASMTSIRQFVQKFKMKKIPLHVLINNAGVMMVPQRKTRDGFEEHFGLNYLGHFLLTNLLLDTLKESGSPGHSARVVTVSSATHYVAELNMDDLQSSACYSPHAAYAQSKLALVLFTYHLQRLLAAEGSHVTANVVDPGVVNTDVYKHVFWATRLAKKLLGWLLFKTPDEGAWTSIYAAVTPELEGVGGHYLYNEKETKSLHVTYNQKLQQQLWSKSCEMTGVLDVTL
# Sequence of UniProt Q8IUH5 (Q8IUH5 whole entry): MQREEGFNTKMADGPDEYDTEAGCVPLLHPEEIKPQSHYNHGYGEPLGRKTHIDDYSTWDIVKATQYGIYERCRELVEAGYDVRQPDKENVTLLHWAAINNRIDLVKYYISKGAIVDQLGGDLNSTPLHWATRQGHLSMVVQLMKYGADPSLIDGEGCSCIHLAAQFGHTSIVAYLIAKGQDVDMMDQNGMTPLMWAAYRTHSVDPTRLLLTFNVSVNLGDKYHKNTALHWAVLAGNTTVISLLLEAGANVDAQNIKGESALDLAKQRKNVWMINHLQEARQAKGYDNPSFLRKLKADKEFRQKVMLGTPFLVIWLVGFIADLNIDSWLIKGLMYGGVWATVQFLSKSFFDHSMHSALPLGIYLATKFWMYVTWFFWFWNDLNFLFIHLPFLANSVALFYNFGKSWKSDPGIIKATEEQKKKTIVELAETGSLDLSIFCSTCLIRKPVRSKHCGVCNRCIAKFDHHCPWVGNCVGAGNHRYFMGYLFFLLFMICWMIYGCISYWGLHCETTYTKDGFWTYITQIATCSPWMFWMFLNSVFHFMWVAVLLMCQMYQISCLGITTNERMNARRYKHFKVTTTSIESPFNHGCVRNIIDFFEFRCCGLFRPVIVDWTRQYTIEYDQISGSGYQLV
# Sequence of UniProt Q96CN5 (Q96CN5 whole entry): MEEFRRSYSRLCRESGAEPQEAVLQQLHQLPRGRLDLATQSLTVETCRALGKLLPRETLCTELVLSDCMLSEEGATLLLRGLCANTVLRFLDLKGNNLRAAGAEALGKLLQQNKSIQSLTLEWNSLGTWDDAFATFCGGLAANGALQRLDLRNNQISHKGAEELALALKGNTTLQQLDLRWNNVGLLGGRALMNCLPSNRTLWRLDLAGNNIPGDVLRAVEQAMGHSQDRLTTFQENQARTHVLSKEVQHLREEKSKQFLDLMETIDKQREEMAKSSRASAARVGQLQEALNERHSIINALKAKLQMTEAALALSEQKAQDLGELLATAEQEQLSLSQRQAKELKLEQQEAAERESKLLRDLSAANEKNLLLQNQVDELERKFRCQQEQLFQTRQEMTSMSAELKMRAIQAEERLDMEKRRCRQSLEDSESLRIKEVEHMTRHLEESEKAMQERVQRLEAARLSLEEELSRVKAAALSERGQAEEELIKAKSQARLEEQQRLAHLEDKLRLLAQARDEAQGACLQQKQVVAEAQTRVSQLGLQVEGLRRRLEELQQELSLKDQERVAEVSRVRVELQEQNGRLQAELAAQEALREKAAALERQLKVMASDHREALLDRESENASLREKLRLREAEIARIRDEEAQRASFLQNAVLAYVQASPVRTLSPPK
# Sequence of UniProt Q92688 (Q92688 whole entry): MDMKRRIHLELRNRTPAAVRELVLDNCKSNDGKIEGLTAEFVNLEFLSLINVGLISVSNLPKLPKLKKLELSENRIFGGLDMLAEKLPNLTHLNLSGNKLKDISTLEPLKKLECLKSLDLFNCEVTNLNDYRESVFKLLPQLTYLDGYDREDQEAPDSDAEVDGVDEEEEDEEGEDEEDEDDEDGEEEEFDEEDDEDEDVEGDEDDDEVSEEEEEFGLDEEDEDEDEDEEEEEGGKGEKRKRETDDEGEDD
row,Target,thermal stability z-score
1,KIF1B (UniProt O60333),-0.488
2,ATP6V1G1 (UniProt O75348),0.563
3,TMEM209 (UniProt Q96SK2),-0.644
4,ARRDC1 (UniProt Q8N5I2),-0.245
5,SLC15A4 (UniProt Q8N697),0.836
6,TSC1 (UniProt Q92574),0.103
7,ZDHHC17 (UniProt Q8IUH5),0.571
8,ATG101 (UniProt Q9BSB4),-0.67
9,HSPA4L (UniProt O95757),0.0785
10,HECTD4 (UniProt Q9Y4D8),-0.345
11,PFDN4 (UniProt Q9NQP4),0.286
12,PTPMT1 (UniProt Q8WUK0),0.619
13,ANXA1 (UniProt P04083),0.957
14,TXNDC11 (UniProt Q6PKC3),-0.797
15,DCAF7 (UniProt P61962),0.278
16,DHRSX (UniProt Q8N5I4),0.396
17,ATPAF1 (UniProt Q5TC12),-0.471
18,ITGA3 (UniProt P26006),0.122
19,CCDC59 (UniProt Q9P031),-0.52
20,CNOT6 (UniProt Q9ULM6),-0.197
21,ANP32B (UniProt Q92688),-0.711
22,TLE2 (UniProt Q04725),-0.165
23,PGGT1B (UniProt P53609),-0.242
24,FAM173B (UniProt Q6P4H8),-0.478
25,ENSA (UniProt O43768),0.841
26,STEAP3 (UniProt Q658P3),0.104
27,HSPE1 (UniProt P61604),1.5

row,Target,thermal stability z-score
1,KANK1 (UniProt Q14678),0.282
2,FTO (UniProt Q9C0B1),-0.0697
3,SNRNP200 (UniProt O75643),-0.116
4,PSME1 (UniProt Q06323),-0.372
5,DSTYK (UniProt Q6XUX3),0.0406
6,LRRC45 (UniProt Q96CN5),-0.00638
7,IFI16 (UniProt Q16666),0.022
8,WDR3 (UniProt Q9UNX4),-0.031
9,VPS13D (UniProt Q5THJ4),0.236
10,RECQL5 (UniProt O94762),-0.0312
11,SIRT6 (UniProt Q8N6T7),-0.0481
12,PREPL (UniProt Q4J6C6),0.836
13,PAIP1 (UniProt Q9H074),0.875
14,TFAM (UniProt Q00059),-0.198
15,CUL4B (UniProt Q13620),0.0797
16,CASC4 (UniProt Q6P4E1),0.245
17,GPN3 (UniProt Q9UHW5),-0.0577
18,DHX30 (UniProt Q7L2E3),-0.306
19,TRIP11 (UniProt Q15643),-2.35
20,PGS1 (UniProt Q32NB8),0.522
21,NUDCD2 (UniProt Q8WVJ2),0.599
22,SPTAN1 (UniProt Q13813),0.768
23,RAB11FIP5 (UniProt Q9BXF6),0.135
24,MZT2B (UniProt Q6NZ67),0.0548
25,RPL7L1 (UniProt Q6DKI1),0.203
26,GTPBP3 (UniProt Q969Y2),0.357
